Test results: patent publication EP0960886B1, “Peptide T and related peptides in the treatment of inflammation, including multiple sclerosis” (priority 1992, dated 1993)

How the values were obtained:
HIV = conditions: 100 nM Peptide T; cited from earlier work
[1] = patients with AIDS; Phase I (USC) and Phase II (Fenway Clinic); cited from earlier work
[2] = test system: Human umbilical vein endothelial cells; assay: TNF-induced tissue factor expression on endothelial cells, ELISA (Example 6); format: cell-based; conditions: 100 units/ml human recombinant TNF, 4 h; Peptide T 0.5 to 100 µg/ml; triplicate cultures
Method: Human umbilical vein endothelial cells were cultured in M199 medium supplemented with 10% foetal calf serum, endothelial cell growth factor, penicillin, streptomycin and L-glutamine in 96-well dishes using a modification of the procedure of Bevilaqua et al, Proc. Natl. Acad. Sci. USA 83 4533 (1986)). TNF treatment of cultures (100 units.ml) was for 4 h at 37°C in the presence of growth medium, after which the cells were washed and fixed. Cultures were, also treated with Peptide T + TNF or Peptide T alone. In these cultures Peptide T was at a concentration which ranged from 0.5 to 100 µg/ml. Tissue factor expression by the endothelial cells treated with TNF with or without peptide T was determined in an ELISA using a monoclonal antibody which neutralises the activity of human tissue factor (Carlbiochem A/S). Bound anti-tissue factor antibody was detected using peroxidase-conjugated rabbit anti-mouse Ig and the substrate ABST. Colour intensity was determined by the optical density of each well at 405nm.

PBMC [3] = assay: Mitogen induced proliferation of PBMC, 3H thymidine uptake, 6 day culture (Example 8); format: cell-based, human
Method: PBMC (10^5) were cultured in 200 µl RPMI containing 10% heat inactivated foetal bovine serum, 2 mM L-glutamine and gentamycin 100 µg/ml with mitogen and Peptide T added on the first day of culture. Growth was assessed in triplicate by ^3H thymidine uptake following a 6 day incubation and expressed as a proliferation index (cpm in presence of mitogen ± Peptide T […] cpm in absence of stimulation). A proliferation index >1.00 implies growth beyond that in media alone. At physiologically obtainable concentrations, Peptide T inhibits proliferation of normal (HIV seronegative) peripheral blood mononuclear cells (PBMC) without causing significant cytotoxicity as shown in Table III. This effect is long term in that Peptide T given on the first day of a six day culture will inhibit mitogen induced proliferation.

PBMC [4] = format: cell-based, human
[5] = Health-related quality of life and symptom assessment in MS patients (MS-modified MOS-HIV, PGWB, MS Symptom Checklist); format: in vivo, human
From the text: To evaluate the impact of drug-related change on overall health and symptom burden, MS patients were followed routinely with both recognized and newly developed health-related quality of life instruments: an MS-modified version of the 30-item Medical Outcomes Study-HIV Survey (MOS-HIV) originally developed by Dr. Albert Wu, the 22-item Psychological General Well-Being Schedule (PGWB) developed by Dr. Harold Dupuy, and the MS Symptom Checklist developed for this study. These instruments, of which the first two have previously been validated and shown to be responsive to change in other disease states, allow quantitation of self-reported symptom variation (see Brook et al., Medical Care 17(7 Suppl.) 1-54 (1979), Fazio "A Concurrent Validation Survey of the NCHS General Well-Being Schedule", US Dept of Health, Education and Welfare, National Center for Health Statistics, Hyattsville, Maryland, USA 1977, McDowell and Newell "Measuring Health: A Guide to Rating Scales and Questionnaires", Oxford University Press 1987, Stewart et al., Medical Care 26 724-35 (1988), JAMA 262 907-13 (1989), and "Measuring Functioning and Well-Being of Patients with Chronic Conditions: The Medical Outcomes Study Approach", Duke University Press 1992, Wachtel et al., Ann. Int. Med. 116 129-137 (1992), Ware et al., "Conceptualization and Measurement of Health for Adults in the Health Insurance Survey, Vol III: Mental Health", Rand Corporation 1979, and Wu et al., Medical Care 29(8) 786-98 (1991)).
Given the small number of patients involved in this report, some of whom received Peptide T in an on-off-on design, it would not be expected that statistical significance might be obtained. To facilitate establishment of any trends, three patients who stopped taking Peptide T and then restarted the drug some weeks later after a new baseline period appear twice in the following analysis. In this manner, 8 baseline and repeated measures (at weeks 0, 4, 8, and 12) were defined and analysed using two-tailed paired t-tests: see Table XIV.

[6] = test system: Human umbilical vein endothelial cells; assay: TNFα-induced tissue factor expression on endothelial cells, ELISA (Example 17); format: cell-based; conditions: TNFα 3 µg/ml for 4 hours; increasing concentrations of Peptide T
Method: Methodology Human umbilical vein endothelial cells were cultured essentially by the method of Bevilacqua et al. Proc. Natl. Acad. Sci. USA 83 4533-4537 (1986). Cell cultures were treated with TNFα at 3 µg/ml for 4 hours at 37° in the presence or absence of Peptide T. Tissue factor expression was measured by an ELISA, following absorbence at 450nm.

Molt-4 cells = assay: PBMC mediated killing of Molt-4 cells; format: cell-based, human; conditions: Peptide T added on the first day of a four day culture
From the text: When PBMC are mixed with allogeneic Molt-4 cells the growth of Molt-4 is inhibited (Figure 6). Alloreactive PBMC recognise Molt-4 as foreign and generate cytotoxic effector cells that kill Molt-4. Molt-4 is not a cytotoxic cell line and can not generate alloreactive effector cells. […] It is not possible to distinguish growth of alloreactive T cells from the growth of Molt-4 survivors since neither the growth of alloreactive T cells (Figure 5) nor the growth of Molt-4 (Table IX) would be affected by Peptide T.

C[C@@H](N)C(=O)N[C@@H](CO)C(=O)N[C@H](C(=O)N[C@H](C(=O)N[C@H](C(=O)N[C@@H](CC(N)=O)C(=O)N[C@@H](Cc1ccc(O)cc1)C(=O)N[C@H](C(N)=O)[C@@H](C)O)[C@@H](C)O)[C@@H](C)O)[C@@H](C)O [Peptide T, D-Ala-Ser-Thr-Thr-Thr-Asn-Tyr-Thr-NH2]
reduction of reverse transcriptase (HIV): ninefold reduction
HIV-induced neurocognitive impairment [1]: improvement
expression of tissue factor on endothelial cells [2]: inhibited
Proliferation Index ± SD (PBMC [3]; ConA 25 µg/ml, Peptide T 10^-5 mol/l, without Peptide T 4.55±0.66): 2.72±1.20
Proliferation Index ± SD (PBMC [3]; ConA 25 µg/ml, Peptide T 10^-7 mol/l, without Peptide T 4.55±0.66): 3.19±0.06
Proliferation Index ± SD (PBMC [3]; ConA 25 µg/ml, Peptide T 10^-9 mol/l, without Peptide T 4.55±0.66): 1.98±0.04
Proliferation Index ± SD (PBMC [3]; ConA 25 µg/ml, Peptide T 10^-12 mol/l, without Peptide T 4.55±0.66): 1.69±0.48
Proliferation Index ± SD (PBMC [3]; Media (absence of mitogens), Peptide T 10^-5 mol/l): 1.14±0.15
Proliferation Index ± SD (PBMC [3]; Media (absence of mitogens), Peptide T 10^-7 mol/l): 0.73±0.16
Proliferation Index ± SD (PBMC [3]; Media (absence of mitogens), Peptide T 10^-9 mol/l): 2.17±1.10
Proliferation Index ± SD (PBMC [3]; Media (absence of mitogens), Peptide T 10^-12 mol/l): 1.52±0.15
Proliferation Index ± SD (PBMC [3]; PHA 25 µg/ml, Peptide T 10^-5 mol/l, without Peptide T 317.0±41.0): 149.0±38.4
Proliferation Index ± SD (PBMC [3]; PHA 25 µg/ml, Peptide T 10^-7 mol/l, without Peptide T 317.0±41.0): 123.6±18.1
Proliferation Index ± SD (PBMC [3]; PHA 25 µg/ml, Peptide T 10^-9 mol/l, without Peptide T 317.0±41.0): 78.6±23.1
Proliferation Index ± SD (PBMC [3]; PHA 25 µg/ml, Peptide T 10^-12 mol/l, without Peptide T 317.0±41.0): 103.8±22.8
Proliferation Index ± SD (PBMC [3]; PWM 25 µg/ml, Peptide T 10^-7 mol/l, without Peptide T 7.47±0.50): 4.47±0.36
Proliferation Index ± SD (PBMC [3]; PWM 25 µg/ml, Peptide T 10^-9 mol/l, without Peptide T 7.47±0.50): 4.69±0.42
Proliferation Index ± SD (PBMC [3]; PWM 25 µg/ml, Peptide T 10^-12 mol/l, without Peptide T 7.47±0.50): 4.15±0.23
lymphocytes responding to recall antigen (MMR), antibodies to CD3 or the superantigens SEB and TSST-1 (PBMC [4]): negligible effects
malaise ([5]; 4 and 8 weeks): statistacally significant
forgetfulness and slowness in thinking ([5]; human, in vivo): trend towards improvement
Mean improvements in measures of energy ([5]; week 12, all three instruments): exceeded 2 standard deviations
physical discomfort, mental health and health distress (MS-modified MOS-HIV) ([5]; weeks 4, 8 and 12): either a trend or statistically significant improvement
energy, general quality of life, well-being and unweighted summary score (MS-modified MOS-HIV) ([5]; weeks 4, 8 and 12 vs baseline, two-tailed paired t-tests): Improvement was statistically significant
tissue factor expression [6]: progressively reduce tissue factor expression
PBMC-mediated inhibition of Molt-4 proliferation (Molt-4 cells): remains unaffected
